From patent US8445501B2, “Substituted 7-carboxamido-pyrrolo[3,2-d]pyrimidines” (Takeda GmbH, priority 2008, dated 2013)

These compounds were tested against T1, human PDE5 (Homo sapiens, UniProt O76074) (assay: Inhibition of the type 5 phosphodiesterase (PDE5) activity, modified SPA test with platelet lysate). Details: PDE5 from human platelet lysate, 0.5 μM cGMP.
T1 construct: from tissue; host or cells: platelets from fresh blood of human donors (lysate, 10,000 g supernatant)
Type: biochemical
Procedure: Method for Measuring Inhibition of the Type 5 Phosphodiesterase (PDE5) Activity:
As a source for human PDE5, platelets are used. For that purpose, 150 ml fresh blood from human donors anticoagulated with citrate [final concentration 0.3% (w/v)] is centrifuged at 200 g for 10 min to obtain the so-called platelet-rich-plasma (PRP) as a supernatant. 1/10 volume of ACD solution (85 mM Na3-citrate, 111 mM D-glucose, 71 mM citric acid, pH 4.4) is added to 9/10 volume of PRP. After centrifugation (1,400 g, 10 min) the cell pellet is resuspended in 3 ml homogenization buffer (NaCl 140 mM, KCl 3.8 mM, EGTA (ethylene glycol tetraacetic acid) 1 mM, MgCl2 1 mM, Tris-HCl 20 mM, beta-mercaptoethanol 1 mM, pH 8.2) plus protease-inhibitor mix giving rise to the final concentrations of 0.5 mM Pefablock (Roche), 10 μM Leupeptin, 5 μM Trypsininhibitor, 2 mM Benzamidin and 10 μM Pepstatin A. The suspension is sonified and thereafter centrifuged for 15 min at 10,000 g. The resulting supernatant (platelet lysate) is used for enzymatic testings.
PDE5A1 activity is inhibited by the compounds of the invention in a modified SPA (scintillation proximity assay) test, supplied by Amersham Biosciences (see procedural instructions “phosphodiesterase [3H]cAMP SPA enzyme assay, code TRKQ 7090”), carried out in 96-well microtitre plates (MTP's). The test volume is 100 μl and contains 20 mM Tris buffer (pH 7.4), 0.1 mg of BSA (bovine serum albumin)/ml, 5 mM Mg^2+, 1 μM motapizone, 10 nM PDE2 inhibitor 2-(3,4-dimethoxybenzyl)-7-[(1R,2R)-2-hydroxy-1-(2-phenylethyl)propyl]-5-methylimidazo[5,1-f][1,2,4]triazin-4(3H)-one, 0.5 μM cGMP (cyclic guanosine monophosphate) (including about 50,000 cpm of [3H]cGMP as a tracer), 1 μl of the respective compound dilution in dimethylsulfoxide (DMSO) and sufficient PDE5-containing platelet lysat (10,000×g supernatant, see above) to ensure that 10-20 wt % of the cGMP is converted under the said experimental conditions. […] After a preincubation of 5 min at 37° C., the reaction is started by adding the substrate (cGMP) and the assay is incubated for a further 15 min; after that, it is stopped by adding SPA beads (50 μl). In accordance with the manufacturer's instructions, the SPA beads had previously been resuspended in water, but are then diluted 1:3 (v/v) in water; the diluted solution also contains 3 mM […] (IBMX) to ensure a complete PDE activity stop. After the beads have been sedimented (>30 min), the MTP's are analyzed in commercially available luminescence detection de-vices. The corresponding IC50 values of the compounds for the inhibition of PDE activity are deter-mined from the concentration-effect curves by means of non-linear regression.

Row | IC50 [nM] | Compound
1 | 1.55 | COCC(=O)N1CCC[C@H](NC(=O)c2c[nH]c3c(-c4c(OCC5CC5)ccc5c4OCO5)ncnc23)C1 [Example 45, 4-(5-Cyclopropylmethoxy-benzo[1,3]dioxol-4-yl)-5H-pyrrolo[3,2-d]pyrimidine-7-carboxylic acid [(S)-1-(2-methoxy-ethanoyl)-piperidin-3-yl]amide]
2 | 1.38 | CC(=O)N1CCC[C@H](NC(=O)c2c[nH]c3c(-c4c(OCC5CC5)ccc5c4OCO5)ncnc23)C1 [Example 46, 4-(5-Cyclopropylmethoxy-benzo[1,3]dioxol-4-yl)-5H-pyrrolo[3,2-d]pyrimidine-7-carboxylic acid ((S)-1-acetyl-piperidin-3-yl)-amide]
3 | 0.427 | COCC(=O)N1CCC[C@@H](NC(=O)c2c[nH]c3c(-c4c(OCC5CC5)ccc5c4OCO5)ncnc23)C1 [Example 48, 4-(5-Cyclopropylmethoxy-benzo[1,3]dioxol-4-yl)-5H-pyrrolo[3,2-d]pyrimidine-7-carboxylic acid [(R)-1-(2-methoxy-ethanoyl)-piperidin-3-yl]amide]
4 | 0.339 | CC(=O)N1CCC[C@@H](NC(=O)c2c[nH]c3c(-c4c(OCC5CC5)ccc5c4OCO5)ncnc23)C1 [Example 49, 4-(5-Cyclopropylmethoxy-benzo[1,3]dioxol-4-yl)-5H-pyrrolo[3,2-d]pyrimidine-7-carboxylic acid ((R)-1-acetyl-piperidin-3-yl)-amide]
5 | 0.141 | COCC(=O)N[C@H]1CC[C@H](NC(=O)c2c[nH]c3c(-c4c(OCC5CC5)ccc5c4OCO5)ncnc23)CC1 [Example 50, trans-4-(5-Cyclopropylmethoxy-benzo[1,3]dioxol-4-yl)-5H-pyrrolo[3,2-d]pyrimidine-7-carboxylic acid [4-(2-methoxy-acetylamino)-cyclohexyl]-amide]
6 | 0.49 | COc1ccc(-c2ncnc3c(C(=O)N[C@H]4CC[C@H](NC(C)=O)CC4)c[nH]c23)c(OCC2CC2)c1 [Example 51, trans-4-(2-Cyclopropylmethoxy-4-methoxy-phenyl)-5H-pyrrolo[3,2-d]pyrimidine-7-carboxylic acid (4-acetylamino-cyclohexyl)-amide]
7 | 0.302 | COc1ccc(-c2ncnc3c(C(=O)N[C@H]4CC[C@H](NC(=O)C5CC5)CC4)c[nH]c23)c(OCC2CC2)c1 [Example 52, trans-4-(2-Cyclopropylmethoxy-4-methoxy-phenyl)-5H-pyrrolo[3,2-d]pyrimidine-7-carboxylic acid [4-(cyclopropanecarbonyl-amino)cyclohexyl]-amide]
8 | 0.372 | COCC(=O)N[C@H]1CC[C@H](NC(=O)c2c[nH]c3c(-c4ccc(OC)cc4OCC4CC4)ncnc23)CC1 [Example 53, trans-4-(2-Cyclopropylmethoxy-4-methoxy-phenyl)-5H-pyrrolo[3,2-d]pyrimidine-7-carboxylic acid [4-(2-methoxy-acetylamino)-cyclohexyl]-amide]
9 | 0.417 | CCOC(=O)N[C@H]1CC[C@H](NC(=O)c2c[nH]c3c(-c4ccc(OC)cc4OCC4CC4)ncnc23)CC1 [Example 54, trans-(4-{[4-(2-Cyclopropylmethoxy-4-methoxy-phenyl)-5H-pyrrolo[3,2-d]pyrimidine-7-carbonyl]-amino}-cyclohexyl)-carbamic acid ethyl ester]
10 | 0.372 | COc1ccc(-c2ncnc3c(C(=O)N[C@H]4CC[C@@H](NC(C)=O)CC4)c[nH]c23)c(OCC2CC2)c1 [Example 55, cis-4-(2-Cyclopropylmethoxy-4-methoxy-phenyl)-5H-pyrrolo[3,2-d]pyrimidine-7-carboxylic acid (4-acetylamino-cyclohexyl)-amide]
11 | 0.282 | COc1ccc(-c2ncnc3c(C(=O)N[C@H]4CC[C@@H](NC(=O)C5CC5)CC4)c[nH]c23)c(OCC2CC2)c1 [Example 56, cis-4-(2-Cyclopropylmethoxy-4-methoxy-phenyl)-5H-pyrrolo[3,2-d]pyrimidine-7-carboxylic acid [4-(cyclopropanecarbonyl-amino)cyclohexyl]-amide]
12 | 0.468 | COCC(=O)N[C@H]1CC[C@@H](NC(=O)c2c[nH]c3c(-c4ccc(OC)cc4OCC4CC4)ncnc23)CC1 [Example 57, cis-4-(2-Cyclopropylmethoxy-4-methoxy-phenyl)-5H-pyrrolo[3,2-d]pyrimidine-7-carboxylic acid [4-(2-methoxy-acetylamino)-cyclohexyl]-amide]
13 | 0.339 | CCOC(=O)N[C@H]1CC[C@@H](NC(=O)c2c[nH]c3c(-c4ccc(OC)cc4OCC4CC4)ncnc23)CC1 [Example 58, cis-(4-{[4-(2-Cyclopropylmethoxy-4-methoxy-phenyl)-5H-pyrrolo[3,2-d]pyrimidine-7-carbonyl]-amino}-cyclohexyl)-carbamic acid ethyl ester]
14 | 0.741 | COc1ccc(-c2ncnc3c(C(=O)NC4CCN(C(C)=O)CC4)c[nH]c23)c(OCC2CC2)c1 [Example 59, 4-(2-Cyclopropylmethoxy-4-methoxy-phenyl)-5H-pyrrolo[3,2-d]pyrimidine-7-carboxylic acid (1-acetyl-piperidin-4-yl)-amide]
15 | 0.263 | COc1ccc(-c2ncnc3c(C(=O)NC4CCN(C(=O)C5CC5)CC4)c[nH]c23)c(OCC2CC2)c1 [Example 60, 4-(2-Cyclopropylmethoxy-4-methoxy-phenyl)-5H-pyrrolo[3,2-d]pyrimidine-7-carboxylic acid [1-(1-cyclopropyl-methanoyl)-piperidin-4-yl]-amide]
16 | 0.525 | COCC(=O)N1CCC(NC(=O)c2c[nH]c3c(-c4ccc(OC)cc4OCC4CC4)ncnc23)CC1 [Example 61, 4-(2-Cyclopropylmethoxy-4-methoxy-phenyl)-5H-pyrrolo[3,2-d]pyrimidine-7-carboxylic acid [1-(2-methoxy-ethanoyl)-piperidin-4-yl]amide]
17 | 0.309 | CCOC(=O)N1CCC(NC(=O)c2c[nH]c3c(-c4ccc(OC)cc4OCC4CC4)ncnc23)CC1 [Example 62, 4-({1-[4-(2-Cyclopropylmethoxy-4-methoxy-phenyl)-5H-pyrrolo[3,2-d]pyrimidin-7-yl]-methanoyl}-amino)-piperidine-1-carboxylic acid ethyl ester]
18 | 0.912 | COc1ccc(OCC2CC2)c(-c2ncnc3c(C(=O)N[C@H]4CC[C@H](NC(C)=O)CC4)c[nH]c23)c1 [Example 63, trans-4-(2-Cyclopropylmethoxy-5-methoxy-phenyl)-5H-pyrrolo[3,2-d]pyrimidine-7-carboxylic acid (4-acetylamino-cyclohexyl)-amide]
19 | 0.603 | COc1ccc(OCC2CC2)c(-c2ncnc3c(C(=O)N[C@H]4CC[C@H](NC(=O)C5CC5)CC4)c[nH]c23)c1 [Example 64, trans-4-(2-Cyclopropylmethoxy-5-methoxy-phenyl)-5H-pyrrolo[3,2-d]pyrimidine-7-carboxylic acid [4-(cyclopropanecarbonyl-amino)cyclohexyl]-amide]
20 | 1.15 | COCC(=O)N[C@H]1CC[C@H](NC(=O)c2c[nH]c3c(-c4cc(OC)ccc4OCC4CC4)ncnc23)CC1 [Example 65, trans-4-(2-Cyclopropylmethoxy-5-methoxy-phenyl)-5H-pyrrolo[3,2-d]pyrimidine-7-carboxylic acid [4-(2-methoxy-acetylamino)-cyclohexyl]-amide]
21 | 0.631 | CCOC(=O)N[C@H]1CC[C@H](NC(=O)c2c[nH]c3c(-c4cc(OC)ccc4OCC4CC4)ncnc23)CC1 [Example 66, trans-(4-{[4-(2-Cyclopropylmethoxy-5-methoxy-phenyl)-5H-pyrrolo[3,2-d]pyrimidine-7-carbonyl]-amino}-cyclohexyl)-carbamic acid ethyl ester]
22 | 1.38 | COc1ccc(OCC2CC2)c(-c2ncnc3c(C(=O)N[C@H]4CC[C@@H](NC(C)=O)CC4)c[nH]c23)c1 [Example 67, cis-4-(2-Cyclopropylmethoxy-5-methoxy-phenyl)-5H-pyrrolo[3,2-d]pyrimidine-7-carboxylic acid (4-acetylamino-cyclohexyl)-amide]
23 | 0.912 | COc1ccc(OCC2CC2)c(-c2ncnc3c(C(=O)N[C@H]4CC[C@@H](NC(=O)C5CC5)CC4)c[nH]c23)c1 [Example 68, cis-4-(2-Cyclopropylmethoxy-5-methoxy-phenyl)-5H-pyrrolo[3,2-d]pyrimidine-7-carboxylic acid [4-(cyclopropanecarbonyl-amino)cyclohexyl]-amide]
